Tests used:
PLK1(h) = PLK1(h) (Homo sapiens, UniProt P53350); assay: PLK1 kinase inhibition, radiometric [33P-ATP] assay (IC50 Profiler Express); format: biochemical; settings: for IC50: 10 μM ATP, 1 μM substrate (casein), 40 minutes at room temperature
Description: (§1) The analysis protocol was as follows. 1 μM substrate (casein), 10 μM ATP and PLK1(h) (5-10 mU) were incubated with 25 mM Tris pH 7.5, 0.02 mM EGTA, 0.66 mg/mL myelin basic protein, 10 mM Mg acetate and [33P-ATP] (specific activity of about 500 cpm/pmol, concentration as required) in a reaction solution with a final volume of 25 μL. The reaction was initiated by adding Mg-ATP mixture. After incubation at room temperature for 40 minutes, the reaction was stopped by adding 5 μL of a 3% phosphoric acid solution. 10 μL of the reaction solution was spotted on a P30 filter mat and washed 3 times for 5 minutes in 75 mM phosphoric acid and once in methanol prior to drying and scintillation counting. The 30 selected protein kinases were ABL1, AKT1, ALK, Aurora A, AXL, AXL (R499C), BRAF (V599E), BTK, c-MER, c-MET, c-Src, CAMKK1, CDK1/cyclin A, EGFR, ERK1, FGFR3, FYN, IGF1R, JAK3, KDR/VEGFR2, LCK, LYN, MEK1, PKA, PLK1, PLK2, PLK3, PLK4/SAK, SYK and TYRO3/SKY4.

[1] = system: 30 selected protein kinases; assay: Selected kinase profiling of 30 protein kinases (Reaction Biology Kinase Hot Spot service); format: biochemical; settings: screening at 10 μM or 30 μM (FIG. 2)
Description: as §1

Sequence of PLK1(h) (P53350 whole entry): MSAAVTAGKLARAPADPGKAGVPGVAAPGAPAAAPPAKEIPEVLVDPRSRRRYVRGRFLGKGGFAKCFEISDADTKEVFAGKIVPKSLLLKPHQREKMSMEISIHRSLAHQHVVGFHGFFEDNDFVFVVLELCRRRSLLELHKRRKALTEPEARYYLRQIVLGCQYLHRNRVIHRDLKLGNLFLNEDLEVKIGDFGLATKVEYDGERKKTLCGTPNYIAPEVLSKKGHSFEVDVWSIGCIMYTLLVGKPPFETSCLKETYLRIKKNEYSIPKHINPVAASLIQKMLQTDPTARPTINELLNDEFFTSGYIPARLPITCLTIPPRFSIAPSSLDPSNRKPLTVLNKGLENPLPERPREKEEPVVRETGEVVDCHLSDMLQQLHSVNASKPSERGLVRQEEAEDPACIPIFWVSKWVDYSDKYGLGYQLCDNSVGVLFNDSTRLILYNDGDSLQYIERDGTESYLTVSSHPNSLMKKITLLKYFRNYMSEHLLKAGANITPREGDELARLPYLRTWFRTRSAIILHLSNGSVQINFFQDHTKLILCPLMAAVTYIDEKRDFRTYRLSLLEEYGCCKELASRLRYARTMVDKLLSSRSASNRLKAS

IC50 (PLK1(h))	inhibitory activity against PLK1 (in words) (PLK1(h))	Compound	selectivity for PLK1 over other protein kinases (in words) [1]
9890 nM	–	NC(=O)c1nn(-c2ccnc(Nc3ccccc3)c2)cc1OCc1ccccc1 [Compound 13a, 4-(benzyloxy)-1-(2-(phenylamino)pyridin-4-yl)-1H-pyrazole-3-carboxamide]	–
847 nM	–	NC(=O)c1nn(-c2ccnc(Nc3ccccc3)c2)cc1OCc1ccccc1C(F)(F)F [Compound 13b]	–
1020 nM	–	COc1ccccc1Nc1cc(-n2cc(OCc3ccccc3)c(C(N)=O)n2)ccn1 [Compound 14a]	–
1310 nM	–	COc1ccccc1Nc1cc(-n2cc(OCc3ccccc3C(F)(F)F)c(C(N)=O)n2)ccn1 [Compound 14b]	–

More lines, now with the values behind:

Compound	IC50 (PLK1(h))	inhibitory activity against PLK1 (in words) (PLK1(h))	selectivity for PLK1 over other protein kinases (in words) [1]
NC(=O)c1nn(-c2ccnc(Nc3ccccc3)c2)cc1OCc1ccc(CO)cc1Cl [Compound 15, 4-((2-chloro-4-(hydroxymethyl)benzyl)oxy)-1-(2-(phenylamino)pyridin-4-yl)-1H-pyrazole-3-carboxamide]	219 nM	highest inhibitory activity against PLK1	superior effect of inhibiting PLK1 selectively as compared to other protein kinases
CN(C)Cc1ccc(COc2cn(-c3ccnc(Nc4ccccc4)c3)nc2C(N)=O)c(Cl)c1 [Compound 16, 4-((2-chloro-4-((dimethylamino)methyl)benzyl)oxy)-1-(2-(phenylamino)pyridin-4-yl)-1H-pyrazole-3-carboxamide]	1010 nM	–	–
COc1ccccc1Nc1cc(-n2cc(OCc3ccc(CO)cc3Cl)c(C(N)=O)n2)ccn1 [Compound 17]	312 nM	–	–
COc1ccccc1Nc1cc(-n2cc(OCc3ccc(CN(C)C)cc3Cl)c(C(N)=O)n2)ccn1 [Compound 18]	998 nM	–	–

Source: US12552768B2, “Pyridinylpyrazole derivative or pharmaceutically acceptable salt thereof and use thereof” (INDUSTRY-UNIVERSITY COOPERATION FOUNDATION HANYANG …, priority 2021, dated 2026)
